Literature values in publication PMC3517478 (BMC Neurology, 2012).

Tests used:
[1] = system: startle mutations of the glycine receptor; settings: propofol 1–500 μM; Xenopus laevis oocytes; cited from earlier work
[2] = system: transgenic mice (tg271Q-300); settings: 15 mg/kg i.p.; cited from earlier work

SMILES: CC(C)c1cccc(C(C)C)c1O [propofol]
- effect on glycine induced maximal response [1]: increases the glycine induced maximal response
- effect on startle symptoms (righting time, tremor) [2]: decreased righting time and abatements in tremor without sedative side effects
